pIC50: −log10 of the molar value. Active and inactive are the calls of the source. The rule behind the calls is not given here.
Columns and labels:
Leishmania braziliensis [1] = assay: Antileishmanial activity against Leishmania braziliensis MHOM/BR/75/M2903 promastigotes assessed as lysis of promastigotes at 100 ug/ml after 72 hrs; assay type: functional
Leishmania amazonensis [2] = assay: Antileishmanial activity against Leishmania amazonensis IFLA/BR/67/PH8 promastigotes assessed as lysis of promastigotes at 100 ug/ml after 72 hrs; assay type: functional
Leishmania amazonensis [3] = assay: Leishmanicidal activity against Leishmania amazonensis amastigotes infected in BALB/c mouse assessed as suppression of lesion weight at 100 mg/kg/day, sc administered 4 weeks after infection for 15 days measured after 1 week relative to control; assay type: functional, organism-based
Leishmania amazonensis [4] = assay: Leishmanicidal activity against Leishmania amazonensis amastigotes infected in BALB/c mouse assessed as suppression of parasite load in lesions at 100 mg/kg/day, sc administered 4 weeks after infection for 15 days measured after 1 week relative to control; assay type: functional, organism-based
Leishmania donovani [5] = assay: Antileishmanial activity against Leishmania donovani MHOM/BR/74/PP75 promastigotes assessed as lysis of promastigotes at 100 ug/ml after 72 hrs; assay type: functional
Trypanosoma cruzi [6] = assay: Trypanocidal activity against Trypanosoma cruzi CL-B5 clone epimastigotes expressing lacZ gene after 72 hrs at 28 degC; assay type: functional, organism-based
Trypanosoma cruzi [7] = assay: Antitrypanosomal activity against Trypanosoma cruzi CL-B5 amastigotes infected in mouse NCTC-929 fibroblast after 7 days by colorimetric method; assay type: functional, organism-based; conditions: NCTC-929, 168 h
Leishmania amazonensis [8] = assay: Antileishmanial activity against Leishmania amazonensis PH8 amastigotes infected in mouse peritoneal macrophages at >4.34 uM; assay type: functional, organism-based
Leishmania donovani [9] = assay: Leishmanicidal activity against Leishmania donovani MHOM/BR/74/PP75 promastigotes after 72 hrs; assay type: functional, organism-based
Leishmania braziliensis [10] = assay: Leishmanicidal activity against Leishmania braziliensis MHOM/BR/75/M2903 promastigotes after 72 hrs; assay type: functional, organism-based; conditions: MHOM/BR/75/M2903, 72 h
Leishmania amazonensis [11] = assay: Leishmanicidal activity against Leishmania amazonensis IFLA/BR/67/PH8 promastigotes after 72 hrs; assay type: functional, organism-based; conditions: IFLA/BR/67/PH8, 72 h
Leishmania amazonensis [12] = assay: Antileishmanial activity against Leishmania amazonensis PH8 amastigotes infected in mouse peritoneal macrophages after 48 hrs; assay type: functional, organism-based; conditions: PH8, 48 h
[13] = Cytotoxicity against mouse NCTC-929 fibroblast at 21.7 uM after 24 hrs by resazurin test; assay type: cell-based; conditions: nctc-929, 24 h
[14] = Cytotoxicity against mouse NCTC-929 fibroblast at 8.6 uM after 24 hrs by resazurin test; assay type: cell-based; conditions: nctc-929, 24 h
[15] = Cytotoxicity against mouse NCTC-929 fibroblast at 4.3 uM after 24 hrs by resazurin test; assay type: cell-based; conditions: nctc-929, 24 h
[16] = Cytotoxicity against mouse NCTC-929 fibroblast at 2.1 uM after 24 hrs by resazurin test; conditions: nctc-929, 24 h
J774 [17] = assay: Cytotoxicity against mouse J774 macrophages at 21.7 uM after 24 hrs by resazurin test; assay type: cell-based; conditions: j774, 24 h
J774 [18] = assay: Cytotoxicity against mouse J774 macrophages at 8.6 uM after 24 hrs by resazurin test; assay type: cell-based; conditions: j774, 24 h
J774 [19] = assay: Cytotoxicity against mouse J774 macrophages at 4.3 uM after 24 hrs by resazurin test; assay type: cell-based; conditions: j774, 24 h
J774 [20] = assay: Cytotoxicity against mouse J774 macrophages at 2.1 uM after 24 hrs by resazurin test; assay type: cell-based; conditions: j774, 24 h
[21] = Cytotoxicity against BALB/c mouse peritoneal macrophages at 21.7 uM after 48 hrs by trypan blue exclusion method; assay type: cell-based; conditions: macrophage
[22] = Cytotoxicity against BALB/c mouse peritoneal macrophages at 8.6 uM after 48 hrs by trypan blue exclusion method; assay type: cell-based; conditions: macrophage
[23] = Cytotoxicity against BALB/c mouse peritoneal macrophages at 4.3 uM after 48 hrs by trypan blue exclusion method; assay type: cell-based; conditions: macrophage
[24] = Cytotoxicity against BALB/c mouse peritoneal macrophages at 2.1 uM after 48 hrs by trypan blue exclusion method; assay type: cell-based; conditions: macrophage
Leishmania amazonensis [25] = assay: Leishmanicidal activity against Leishmania amazonensis amastigotes infected in BALB/c mouse assessed as suppression of lesion weight at 10 mg/kg/day, po administered 4 weeks after infection for 15 days measured after 1 week relative to control; assay type: functional
Leishmania amazonensis [26] = assay: Leishmanicidal activity against Leishmania amazonensis amastigotes infected in BALB/c mouse assessed as suppression of lesion weight at 10 mg/kg/day, sc administered 4 weeks after infection for 15 days measured after 1 week relative to control; assay type: functional; conditions: route subcutaneous
Leishmania amazonensis [27] = assay: Leishmanicidal activity against Leishmania amazonensis amastigotes infected in BALB/c mouse assessed as suppression of lesion weight at 25 mg/kg/day, po administered 4 weeks after infection for 15 days measured after 1 week relative to control; assay type: functional
Leishmania amazonensis [28] = assay: Leishmanicidal activity against Leishmania amazonensis amastigotes infected in BALB/c mouse assessed as suppression of lesion weight at 25 mg/kg/day, sc administered 4 weeks after infection for 15 days measured after 1 week relative to control; assay type: functional; conditions: route subcutaneous
Leishmania amazonensis [29] = assay: Leishmanicidal activity against Leishmania amazonensis amastigotes infected in BALB/c mouse assessed as suppression of parasite load in lesions at 10 mg/kg/day, po administered 4 weeks after infection for 15 days measured after 1 week relative to control; assay type: functional
Leishmania amazonensis [30] = assay: Leishmanicidal activity against Leishmania amazonensis amastigotes infected in BALB/c mouse assessed as suppression of parasite load in lesions at 10 mg/kg/day, sc administered 4 weeks after infection for 15 days measured after 1 week relative to control; assay type: functional; conditions: route subcutaneous
Leishmania amazonensis [31] = assay: Leishmanicidal activity against Leishmania amazonensis amastigotes infected in BALB/c mouse assessed as suppression of parasite load in lesions at 25 mg/kg/day, po administered 4 weeks after infection for 15 days measured after 1 week relative to control; assay type: functional
Leishmania amazonensis [32] = assay: Leishmanicidal activity against Leishmania amazonensis amastigotes infected in BALB/c mouse assessed as suppression of parasite load in lesions at 25 mg/kg/day, sc administered 4 weeks after infection for 15 days measured after 1 week relative to control; assay type: functional; conditions: route subcutaneous
Leishmania donovani [33] = assay: Leishmanicidal activity against Leishmania donovani MHOM/BR/74/PP75 promastigotes at >13.03 uM after 72 hrs; assay type: functional, organism-based
Leishmania braziliensis [34] = assay: Leishmanicidal activity against Leishmania braziliensis MHOM/BR/75/M2903 promastigotes at >13.03 uM after 72 hrs; assay type: functional, organism-based
Leishmania amazonensis [35] = assay: Leishmanicidal activity against Leishmania amazonensis IFLA/BR/67/PH8 promastigotes at >13.03 uM after 72 hrs; assay type: functional, organism-based

Q: With `Oc1ccc(CCc2cccc(O)c2)cc1` [LUNULARIN] as the compound, how does the Activity (Leishmania braziliensis [1]) read?
A: The Activity was less than 70%.

Q: What about the Activity (Leishmania amazonensis [2]) of the same compound?
A: The Activity was less than 70%.

Q: What does the source list for `COc1ccc(CCc2cc(OC)ccc2OC)cc1`?
A: Activity (Leishmania braziliensis [1]): <70%; Activity (Leishmania amazonensis [2]): <70%

Q: Which Activity (Leishmania amazonensis [3]) does the source give for MEGLUMINE ANTIMONATE here?
A: Its Activity is 72.1%.

Q: What about the Activity (Leishmania amazonensis [4]) of the same compound?
A: The Activity was 98.2%.

Q: Which results are given for `Oc1ccc(/C=C/c2cc(O)cc(O)c2)cc1` [RESVERATROL]?
A: Activity (Leishmania donovani [5]): <70%; Activity (Leishmania braziliensis [1]): 80%; Activity (Leishmania amazonensis [2]): <70%

Q: With `O=C(Cn1ccnc1[N+](=O)[O-])NCc1ccccc1` [BENZNIDAZOLE] as the compound, how does the pIC50 (Trypanosoma cruzi [6]) read?
A: The pIC50 was 4.26.

Q: What about the pIC50 (Trypanosoma cruzi [7]) of the same compound?
A: Its pIC50 is 3.72.

Q: What does the source list for `Oc1ccc(CCc2cc(O)ccc2O)cc1`?
A: Activity (Leishmania amazonensis [8]): Active; pIC50 (Leishmania donovani [9]): 6.30; pIC50 (Leishmania braziliensis [10]): 5.96; pIC50 (Leishmania amazonensis [11]): 5.96; pIC50 (Trypanosoma cruzi [6]): 5.24; pIC50 (Leishmania amazonensis [12]): 5.82; pIC50 (Trypanosoma cruzi [7]): 4.76; Activity (Leishmania donovani [5]): 100%; Activity (Leishmania braziliensis [1]): 100%; Activity (Leishmania amazonensis [2]): 100%; Activity [13]: 7.91%; Activity [14]: 2.93%; Activity [15]: 0.66%; Activity [16]: 0%; Activity (J774 [17]): 18.88%; Activity (J774 [18]): 4.89%; Activity (J774 [19]): 2.11%; Activity (J774 [20]): 0.76%; Activity [21]: 1.4%; Activity [22]: 0%; Activity [23]: 0%; Activity [24]: 0%; Activity (Leishmania amazonensis [25]): 90%; Activity (Leishmania amazonensis [26]): 95.9%; Activity (Leishmania amazonensis [27]): 80.9%; Activity (Leishmania amazonensis [28]): 98.3%; Activity (Leishmania amazonensis [29]): 68.6%; Activity (Leishmania amazonensis [30]): 93%; Activity (Leishmania amazonensis [31]): 93.1%; Activity (Leishmania amazonensis [32]): 97%; Activity (Leishmania donovani [33]): Active; Activity (Leishmania braziliensis [34]): Active; Activity (Leishmania amazonensis [35]): Active

Q: With `N=C(N)c1ccc(OCCCCCOc2ccc(C(=N)N)cc2)cc1` [PENTAMIDINE] as the compound, how does the pIC50 (Leishmania donovani [9]) read?
A: The pIC50 was 5.01.

Q: What about the pIC50 (Leishmania braziliensis [10]) of the same compound?
A: The pIC50 was 5.01.

Q: What about the pIC50 (Leishmania amazonensis [11]) of the same compound?
A: The pIC50 was 5.01.

Q: And the pIC50 (Leishmania amazonensis [12])?
A: Its pIC50 is 6.05.

Source: ChEMBL document CHEMBL1154439, “Activity of a hydroxybibenzyl bryophyte constituent against Leishmania spp. and Trypanosoma cruzi: in silico, in vitro and in vivo activity studies” (Eur J Med Chem, 2008)
